# From publication PMC6511062, “Preclinical candidate for the treatment of visceral leishmaniasis that acts through proteasome inhibition” (Proceedings of the National Academy of Sciences of the …, 2019)
# Several values for one entry are separate records, joined by “and”; a condition that tells them apart may be missing. Equal values may be shown once. Entries after “also recorded” stand apart in the source; their conditions may differ.
# Columns and labels:
# [1] = test system: ubiquitylated proteins in L. donovani axenic amastigotes; test: Western blot of ubiquitylated proteins in axenic amastigotes; type: cell-based, Leishmania donovani; details: dose-dependent
# Procedure: k. Proteasome activity assays
# Compounds were dispensed into black 384-well assay plates (Greiner) by acoustic dispensing (LabCyte ECHO). For potency determinations, eleven-point, one in three dilution curves were generated, with a top concentration of 100 µM. Three proteasome activities were measured using a commercially available indirect enzyme-based luminescent assay kit (Promega) with Suc-LLVY-aminoluciferin, Z-LRR-aminoluciferin and Z-nLPnLD-aminoluciferin used as substrates for chymotrypsin-like, trypsin-like and caspase-like activities, respectively. In addition to proteasome samples: L. donovani and THP1-enriched proteasomes, commercially available human purified 26S proteasome (Boston Biochem) was also assessed. Proteasome final assay concentration were 0.025 mg/ml for L. donovani and THP1-enriched proteasomes and 1 nM for human purified 26S proteasome. […]
# Substrate solution was then added and after 30 min of incubation luminescent signal was measured in an Envision reader (PerkinElmer). […]
# value) were used as negative and positive controls, respectively. […] Protein concentrations were determined by standard Bradford assays and Laemmli sample buffer was added to samples. […]
# Figure S6. […] Ubiquitin proteins were detected using the human anti-ubiquitin P4D1 antibody diluted 1:1,000. […]
# L. donovani (LV9) = test: Mouse model of VL (in vivo efficacy in female Balb/C mice); set-up: species or system Leishmania donovani
# Procedure: Infected mice were dosed at 3, 10, or 25 mg/kg orally twice a day for 10 consecutive days. Two days after the termination of treatment, mice were euthanized, and the parasite burdens in their livers were determined.
# Peripheral blood samples were obtained at 5, 15, 30 min, 1, 2, 4, 6 ,8 and 24 h after intravenous administration and 15, 30, 45 min,1, 2, 4, 6, 8 and 24 h after oral administration. Blood was 1/2 diluted with milliQ water and immediately frozen on dry ice until analysis. Quantification was performed by means of LC-MS/MS (API4000), with a lower limit of quantification of 1 ng/mL. […]
# Data analysis and calculation of pharmacokinetic parameters was performed using Phoenix, WinNonLin Version 6.3. […]
# For both intravenous and oral administration, the systemic exposures were determined by calculating the area under the blood concentration time curve (AUC) from the start of dosing to the last observed quantifiable concentration (AUC0-t) by using the linear up-log down trapezoidal rule. The slope of the terminal elimination phase was estimated by linear regression of the terminal data points (minimum 3 points) from a natural log concentration versus time plot of the data. The half-life (t1/2) of the terminal elimination phase was calculated as t1/2 = 0.693/λ.
# 7. In vivo efficacy in female Balb/C mice
# To establish infection in mice, sodium stibogluconate-sensitive L. donovani (LV9, WHO designation: MHOM/ET/67/HU3) amastigotes were isolated from the spleen of a heavily infected donor hamster (Janvier, France)7. An inoculum containing 1.0 x 10^8 amastigotes/mL in Dulbecco’s modified eagles medium (high glucose) was prepared […]
# and female BalbC mice (Harlan, UK) then infected intravenously via the tail vein with a 0.2 mL bolus (equivalent to ~2.0 x 10^7 amastigotes). Infection was left to establish for […]
# daily orally as a suspension in 0.5% hydroxypropylmethylcellulose, 0.4% tween 80 and 0.5% benzyl alcohol. With twice daily regimens, the second daily dose was administered approximately 8 h following the first dose. Dose regimens evaluated were:
# 1. 50 mg/kg twice daily for 5 days
# 2. 25 mg/kg, 10 mg/kg and 3 mg/kg twice daily for 10 days
# 3. 25 mg/kg once daily for 10 days
# Miltefosine, as the only oral treatment for visceral leishmaniasis, was used as a […]
# [2] = 7 day oral repeat-dose rat toxicology and toxicokinetics; details: for tolerability: male rats, oral
# Procedure: b. 7 day rat toxicology studies
# A 7 day oral repeat-dose study in male rats was conducted to determine the toxicity […]
# Groups of male rats (4/group toxicity; 3/group […]
# up to 7 days by oral gavage. […]
# WP2 uvrA (pKM101) = test: Ames test, strain WP2 uvrA (pKM101)
# Procedure: oxidative metabolism system (S9-mix). The maximum concentration tested and […]
# Compound 7a was tested in a bacterial mutation screening assay (Ames test) with Salmonella typhimurium TA1535, TA1537, TA98, TA100 and Escherichia coli WP2uvrA(pKM101) in the presence and absence of an exogenous mammalian […]
# The bacterial mutation screening assay was a plate incorporation test carried out as previously described15 and according to current methodology. […]
# [3] = 10-d treatment orally twice a day
smiles,measurement,setting,value
O=C(Nc1ccc(F)c(-c2ccn3c(N4CCOCC4)cnc3n2)c1)N1CCCC1 [Compound 8],accumulation of ubiquitylated proteins,[1],dose-dependent manner; also recorded: induces the accumulation of ubiquitylated proteins
same,Reduction in parasite burden (compared to the vehicle control group),L. donovani (LV9); 3 mg/kg b.i.d. (10 days PO),18.4%
same,Reduction in parasite burden (compared to the vehicle control group),L. donovani (LV9); 10 mg/kg b.i.d. (10 days PO),56.9%
same,Reduction in parasite burden (compared to the vehicle control group),L. donovani (LV9); 25 mg/kg b.i.d. (10 days PO),98.1% and > 95%
same,exposure giving >95% parasite burden reduction,L. donovani (LV9); 25 mg/kg twice a day for 10 days,27 μg/h per mililiter
same,Reduction in parasite burden (compared to the vehicle control group),L. donovani (LV9); 25 mg/kg u.i.d. (10 days PO),8.8%
same,ED90,L. donovani (LV9); [3],16 mg/kg
same,ED99,L. donovani (LV9); [3],30 mg/kg
same,ED50,"L. donovani (LV9); Leishmania donovani, po, 240 h, 10-d treatment orally twice a day",8.9 mg/kg
same,margin to the predicted human blood AUC0-24,[2]; 300 mg/kg/day,37 fold
same,tolerability,[2]; 1000 mg/kg/day,not tolerated
same,tolerability,"[2]; 100 and 300 mg/kg/day, 7 days",tolerated over the 7 days
same,rat 7-d toxicology study outcome,[2]; doses up to 300 mg/kg,no significant safety or tolerability liabilities were detected
same,safety margin,"[2]; male, rat, in vivo, 300 mg/kg, 7 days",at least 37 fold
same,Mean revertants per plate,"WP2 uvrA (pKM101); with S9-mix, dose level 50 per plate",150.5
same,Mean revertants per plate,"WP2 uvrA (pKM101); with S9-mix, dose level 150 per plate",164.5
same,Mean revertants per plate,"WP2 uvrA (pKM101); with S9-mix, dose level 500 per plate",143.5
same,Mean revertants per plate,"WP2 uvrA (pKM101); with S9-mix, dose level 1500 per plate",139.0
same,Mean revertants per plate,"WP2 uvrA (pKM101); with S9-mix, dose level 2500 per plate",130.5
same,Mean revertants per plate,"WP2 uvrA (pKM101); with S9-mix, dose level 5000 per plate",133.5
same,Mean revertants per plate,"WP2 uvrA (pKM101); without S9-mix, dose level 50 per plate",90.0
same,Mean revertants per plate,"WP2 uvrA (pKM101); without S9-mix, dose level 150 per plate",84.5
same,Mean revertants per plate,"WP2 uvrA (pKM101); without S9-mix, dose level 500 per plate",80.5
same,Mean revertants per plate,"WP2 uvrA (pKM101); without S9-mix, dose level 1500 per plate",87.5
same,Mean revertants per plate,"WP2 uvrA (pKM101); without S9-mix, dose level 2500 per plate",91.5
same,Mean revertants per plate,"WP2 uvrA (pKM101); without S9-mix, dose level 5000 per plate",82.0
